Like-named read-outs stand apart in the source and are kept apart here.
Tests used:
Assay type in all cases: biochemical
human cathepsin K = target: T1, human cathepsin K (Homo sapiens, UniProt P43235); assay: Cathepsin K inhibition assay, human recombinant enzyme, fluorogenic substrate Cbz-Phe-Arg-AMC; conditions: read-out: h Cat K IC50
T1 construct: The proform of cathepsin K was converted to mature cathepsin K by brief exposure to pH 4; made in house; host or cells: baculovirus; Trichoplusia ni High Five cells (virus raised in Sf-9)
T1 sequence (P43235 115-329): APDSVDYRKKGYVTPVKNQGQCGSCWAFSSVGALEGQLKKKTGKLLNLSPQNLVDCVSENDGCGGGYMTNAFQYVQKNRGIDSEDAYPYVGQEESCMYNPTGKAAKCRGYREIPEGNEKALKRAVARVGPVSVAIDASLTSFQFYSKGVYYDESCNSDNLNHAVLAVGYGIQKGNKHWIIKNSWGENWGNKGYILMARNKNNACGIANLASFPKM
In short: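 Recombinant human cathepsin K (baculovirus/insect-cell proform, activated at pH 4 with 5 mM L-cysteine) assayed with 10 μM Cbz-Phe-Arg-AMC, 10% DMSO, 30 °C.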

human cathepsin B = human cathepsin B (Homo sapiens, UniProt P07858); assay: Cathepsin B inhibition assay, enzyme from human liver tissue, Cbz-Phe-Arg-AMC; conditions: Table 2, human cathepsin B; read-out: h Cat B IC50
Method: (§1) All assays for cathepsin K were carried out with human and rat recombinant enzyme. Assays for cathepsins S ? V were also carried out with human recombinant enzyme. Assays for human cathepsins B, H, and L were carried out with enzyme, purchased from Athens Research and Technology, Inc., prepared from human liver tissue. Standard assay conditions for the determination of kinetic constants used a fluorogenic peptide substrate, typically (5S,8S)-13-amino-5-benzyl-13-imino-3-methylene-N-(4-methyl-2-oxo-2H-chromen-7-yl)-6-oxo-1-phenyl-2-oxa-4,7,12triazatridecane-8-carboxamide (Cbz-Phe-Arg-AMC), and were determined in 100 mM sodium acetate at pH 5.5 containing 10 mM dithiothreitol and 120 mM sodium chloride. […]
(§2) All assays contained 10% dimethyl sulfoxide. […] Product fluorescence (excitation at 360 nm; emission at 440 nm, (except cathepsin H which used excitation at 340 nm; emission at 420 nm)) was monitored with a PerSeptive Biosystems Cytofluor II fluorescence plate reader. […]
(§3) Potential inhibitors were evaluated using the progress curve method. […] For those compounds whose progress curves were linear, the enzymatic activity (RATE) was plotted against the concentration of test compound, including inhibitor concentration of zero ([I]=0), and the IC50 determined from a fit of equation 1 to the data, RATE=Vmax/(1+([I]/IC50)) (1) where Vmax is the best fit estimate of the maximal enzymatic activity. […]

human cathepsin V = human cathepsin V (Homo sapiens, UniProt O60911); assay: Cathepsin V inhibition assay, human recombinant enzyme, Cbz-Phe-Arg-AMC; conditions: Table 2, human cathepsin V; read-out: h Cat V IC50
Method: as §1, §2, §3

human cathepsin L = human cathepsin L (Homo sapiens, UniProt P07711); assay: Cathepsin L inhibition assay, enzyme from human liver tissue, Cbz-Phe-Arg-AMC; conditions: Table 2, human cathepsin L; read-out: h Cat L IC50
Method: as §1, §2, §3

human cathepsin L, sequence (P07711 114-333): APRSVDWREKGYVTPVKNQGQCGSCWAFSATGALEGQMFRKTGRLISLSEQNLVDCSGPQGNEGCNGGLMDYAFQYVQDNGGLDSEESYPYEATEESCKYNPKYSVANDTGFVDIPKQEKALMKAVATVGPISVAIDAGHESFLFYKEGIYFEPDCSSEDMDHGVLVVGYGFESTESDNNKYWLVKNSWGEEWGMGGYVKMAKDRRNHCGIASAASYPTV
human cathepsin V, sequence (O60911 114-334): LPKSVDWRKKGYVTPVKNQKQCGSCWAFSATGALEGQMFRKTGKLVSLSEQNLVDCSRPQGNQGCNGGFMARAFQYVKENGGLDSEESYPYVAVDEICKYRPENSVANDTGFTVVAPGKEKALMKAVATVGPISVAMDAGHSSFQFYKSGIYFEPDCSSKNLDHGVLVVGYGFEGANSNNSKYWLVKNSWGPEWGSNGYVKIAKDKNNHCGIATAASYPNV

IC50 (human cathepsin K; Table 1, human cathepsin K) [µM]	IC50 (human cathepsin K; Table 2, human cathepsin K) [µM]	IC50 (human cathepsin B) [µM]	IC50 (human cathepsin V) [µM]	IC50 (human cathepsin L) [µM]	Structure (SMILES)
0.0001 to 0.001	0.0001 to 0.001	0.1 to 1	0.01 to 0.1	0.1 to 1	CCCC[C@H](NC(=O)O[C@@H]1CN(c2nnc(C(F)(F)F)s2)CC1(C)C)C(=O)C(=O)Nc1ccn[nH]1 [Example 82, (3S)-4,4-Dimethyl-1-[5-(trifluoromethyl)-1,3,4-thiadiazol-2-yl]pyrrolidinyl-(1S)-1-[oxo(1H-pyrazol-5-ylamino)acetyl]pentylcarbamate]
0.0001 to 0.001	0.0001 to 0.001	0.1 to 1	0.01 to 0.1	0.1 to 1	CCCC[C@H](NC(=O)O[C@@H]1CN(C(=O)Nc2ccc(C(F)(F)F)cc2)CC1(C)C)C(=O)C(=O)Nc1ccn[nH]1 [Example 71, (3S)-4,4-dimethyl-1-{[4-(trifluoromethyl)anilino]carbonyl}pyrrolidinyl (1S)-1-[oxo(1H-pyrazol-5-ylamino)acetyl]pentylcarbamate]

From patent publication US7402606B2, “Derivatives of 1-(oxoaminoacetyl) pentylcarbamate as cathepsin K inhibitors for the treatment of bone loss” (SmithKline Beecham Corporation, priority 2002, dated 2008)
